{"source": "patent US12077503B2", "about": "“Substituted cyclic amides and their use as herbicides” (FMC CORPORATION, priority 2015, dated 2024)", "assay_in_all_cases": "Test C preemergence", "type_in_all_cases": "in vivo", "key": {"[1]": {"system": "Galium (catchweed bedstraw, Galium aparine)", "conditions": "for Plant response rating, Galium: scale 0 to 100, 0 no effect, 100 complete control", "method_in_brief": "(§1)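 Seeds in loam-sand soil treated preemergence, or plants in peat-based medium sprayed postemergence at 2–18 cm (1- to 4-leaf stage), with compound in a non-phytotoxic solvent mixture containing surfactant. Greenhouse-held 13–15 d, then visually rated against controls on a 0–100 scale (0 = no effect, 100 = complete control); dash = not tested.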"}, "[2]": {"system": "lambsquarters (Chenopodium album)", "conditions": "for Plant response rating, Lambsquarters: scale 0 to 100, 0 no effect, 100 complete control", "method_in_brief": "as §1"}, "soybean (Glycine max)": {"system": "soybean (Glycine max)", "conditions": "for Plant response rating, Soybean: scale 0 to 100, 0 no effect, 100 complete control", "method_in_brief": "as §1"}, "corn (Zea mays)": {"system": "corn (Zea mays)", "conditions": "for Plant response rating, Corn: scale 0 to 100, 0 no effect, 100 complete control", "method_in_brief": "as §1"}, "[3]": {"system": "barnyardgrass (Echinochloa crus-galli)", "conditions": "for Plant response rating, Barnyardgrass: scale 0 to 100, 0 no effect, 100 complete control", "method_in_brief": "as §1"}, "[4]": {"system": "wheat (winter wheat, Triticum aestivum)", "conditions": "for Plant response rating, Wheat: scale 0 to 100, 0 no effect, 100 complete control", "method_in_brief": "as §1"}, "[5]": {"system": "velvetleaf (Abutilon theophrasti)", "conditions": "for Plant response rating, Velvetleaf: scale 0 to 100, 0 no effect, 100 complete control", "method_in_brief": "as §1"}, "[6]": {"system": "johnsongrass (Sorghum halepense)", "conditions": "for Plant response rating, Johnsongrass: scale 0 to 100, 0 no effect, 100 complete control", "method_in_brief": "as §1"}, "[7]": {"system": "morningglory (Ipomoea coccinea)", "conditions": "for Plant response rating, Morningglory: scale 0 to 100, 0 no effect, 100 complete control", "method_in_brief": "as §1"}, "[8]": {"system": "nutsedge, yellow (yellow nutsedge, Cyperus esculentus)", "conditions": "for Plant response rating, Nutsedge, Yellow: scale 0 to 100, 0 no effect, 100 complete control", "method_in_brief": "as §1"}, "[9]": {"system": "ryegrass, Italian (Italian ryegrass, Lolium multiflorum)", "conditions": "for Plant response rating, Ryegrass, Italian: scale 0 to 100, 0 no effect, 100 complete control", "method_in_brief": "as §1"}, "[10]": {"system": "crabgrass, large (large crabgrass, Digitaria sanguinalis)", "conditions": "for Plant response rating, Crabgrass, Large: scale 0 to 100, 0 no effect, 100 complete control", "method_in_brief": "as §1"}, "[11]": {"system": "blackgrass (Alopecurus myosuroides)", "conditions": "for Plant response rating, Blackgrass: scale 0 to 100, 0 no effect, 100 complete control", "method_in_brief": "as §1"}, "[12]": {"system": "ragweed (common ragweed, Ambrosia elatior)", "conditions": "for Plant response rating, Ragweed: scale 0 to 100, 0 no effect, 100 complete control", "method_in_brief": "as §1"}, "[13]": {"system": "foxtail, giant (giant foxtail, Setaria faberii)", "conditions": "for Plant response rating, Foxtail, Giant: scale 0 to 100, 0 no effect, 100 complete control", "method_in_brief": "as §1"}, "[14]": {"system": "waterhemp (common waterhemp, Amaranthus rudis)", "conditions": "for Plant response rating, Waterhemp: scale 0 to 100, 0 no effect, 100 complete control", "method_in_brief": "as §1"}, "[15]": {"system": "oilseed rape (Brassica napus)", "conditions": "for Plant response rating, Oilseed Rape: scale 0 to 100, 0 no effect, 100 complete control", "method_in_brief": "as §1"}, "[16]": {"conditions": "31 g ai/ha, 0 is no effect, 100 is complete control"}}}
{"compound": "CN1CC(c2cc(F)cc(F)c2)C(C(=O)Nc2ccc(F)c(F)c2F)C1=O", "note": "(centres unmarked) [Compound 646]", "values": [{"measurement": "Plant response rating (scale of 0 to 100), Galium", "setting": "[1]; [16]", "result": 90}, {"measurement": "Plant response rating, Galium", "setting": "[1]; 62 g ai/ha", "result": 90}, {"measurement": "Plant response rating, Galium", "setting": "[1]; 125 g ai/ha", "result": 90}, {"measurement": "Plant response rating, Galium", "setting": "[1]; 250 g ai/ha", "result": 100}, {"measurement": "Plant response rating (scale of 0 to 100), Lambsquarters", "setting": "[2]; [16]", "result": 40}, {"measurement": "Plant response rating, Lambsquarters", "setting": "[2]; 62 g ai/ha", "result": 60}, {"measurement": "Plant response rating, Lambsquarters", "setting": "[2]; 125 g ai/ha", "result": 75}, {"measurement": "Plant response rating, Lambsquarters", "setting": "[2]; 250 g ai/ha", "result": 80}, {"measurement": "Plant response rating (scale of 0 to 100), Soybean", "setting": "soybean (Glycine max); [16]", "result": 0}, {"measurement": "Plant response rating, Soybean", "setting": "soybean (Glycine max); 62 g ai/ha", "result": 0}, {"measurement": "Plant response rating, Soybean", "setting": "soybean (Glycine max); 125 g ai/ha", "result": 10}, {"measurement": "Plant response rating, Soybean", "setting": "soybean (Glycine max); 250 g ai/ha", "result": 0}, {"measurement": "Plant response rating (scale of 0 to 100), Corn", "setting": "corn (Zea mays); [16]", "result": 35}, {"measurement": "Plant response rating, Corn", "setting": "corn (Zea mays); 62 g ai/ha", "result": 45}, {"measurement": "Plant response rating, Corn", "setting": "corn (Zea mays); 125 g ai/ha", "result": 65}, {"measurement": "Plant response rating, Corn", "setting": "corn (Zea mays); 250 g ai/ha", "result": 75}, {"measurement": "Plant response rating (scale of 0 to 100), Barnyardgrass", "setting": "[3]; [16]", "result": 90}, {"measurement": "Plant response rating, Barnyardgrass", "setting": "[3]; 62 g ai/ha", "result": 95}, {"measurement": "Plant response rating, Barnyardgrass", "setting": "[3]; 125 g ai/ha", "result": 98}, {"measurement": "Plant response rating, Barnyardgrass", "setting": "[3]; 250 g ai/ha", "result": 98}, {"measurement": "Plant response rating (scale of 0 to 100), Wheat", "setting": "[4]; [16]", "result": 35}, {"measurement": "Plant response rating, Wheat", "setting": "[4]; 62 g ai/ha", "result": 80}, {"measurement": "Plant response rating, Wheat", "setting": "[4]; 125 g ai/ha", "result": 85}, {"measurement": "Plant response rating, Wheat", "setting": "[4]; 250 g ai/ha", "result": 90}, {"measurement": "Plant response rating (scale of 0 to 100), Velvetleaf", "setting": "[5]; [16]", "result": 15}, {"measurement": "Plant response rating, Velvetleaf", "setting": "[5]; 62 g ai/ha", "result": 25}, {"measurement": "Plant response rating, Velvetleaf", "setting": "[5]; 125 g ai/ha", "result": 55}, {"measurement": "Plant response rating, Velvetleaf", "setting": "[5]; 250 g ai/ha", "result": 60}, {"measurement": "Plant response rating (scale of 0 to 100), Johnsongrass", "setting": "[6]; [16]", "result": 35}, {"measurement": "Plant response rating, Johnsongrass", "setting": "[6]; 62 g ai/ha", "result": 40}, {"measurement": "Plant response rating, Johnsongrass", "setting": "[6]; 125 g ai/ha", "result": 85}, {"measurement": "Plant response rating, Johnsongrass", "setting": "[6]; 250 g ai/ha", "result": 90}, {"measurement": "Plant response rating (scale of 0 to 100), Morningglory", "setting": "[7]; [16]", "result": 0}, {"measurement": "Plant response rating, Morningglory", "setting": "[7]; 62 g ai/ha", "result": 0}, {"measurement": "Plant response rating, Morningglory", "setting": "[7]; 125 g ai/ha", "result": 0}, {"measurement": "Plant response rating, Morningglory", "setting": "[7]; 250 g ai/ha", "result": 10}, {"measurement": "Plant response rating (scale of 0 to 100), Nutsedge, Yellow", "setting": "[8]; [16]", "result": 0}, {"measurement": "Plant response rating, Nutsedge, Yellow", "setting": "[8]; 62 g ai/ha", "result": 0}, {"measurement": "Plant response rating, Nutsedge, Yellow", "setting": "[8]; 125 g ai/ha", "result": 0}, {"measurement": "Plant response rating, Nutsedge, Yellow", "setting": "[8]; 250 g ai/ha", "result": 35}, {"measurement": "Plant response rating (scale of 0 to 100), Ryegrass, Italian", "setting": "[9]; [16]", "result": 30}, {"measurement": "Plant response rating, Ryegrass, Italian", "setting": "[9]; 62 g ai/ha", "result": 20}, {"measurement": "Plant response rating, Ryegrass, Italian", "setting": "[9]; 125 g ai/ha", "result": 80}, {"measurement": "Plant response rating, Ryegrass, Italian", "setting": "[9]; 250 g ai/ha", "result": 90}, {"measurement": "Plant response rating (scale of 0 to 100), Crabgrass, Large", "setting": "[10]; [16]", "result": 95}, {"measurement": "Plant response rating, Crabgrass, Large", "setting": "[10]; 62 g ai/ha", "result": 95}, {"measurement": "Plant response rating, Crabgrass, Large", "setting": "[10]; 125 g ai/ha", "result": 98}, {"measurement": "Plant response rating, Crabgrass, Large", "setting": "[10]; 250 g ai/ha", "result": 100}, {"measurement": "Plant response rating (scale of 0 to 100), Blackgrass", "setting": "[11]; [16]", "result": 80}, {"measurement": "Plant response rating, Blackgrass", "setting": "[11]; 62 g ai/ha", "result": 80}, {"measurement": "Plant response rating, Blackgrass", "setting": "[11]; 125 g ai/ha", "result": 85}, {"measurement": "Plant response rating, Blackgrass", "setting": "[11]; 250 g ai/ha", "result": 98}, {"measurement": "Plant response rating (scale of 0 to 100), Ragweed", "setting": "[12]; [16]", "result": 20}, {"measurement": "Plant response rating, Ragweed", "setting": "[12]; 62 g ai/ha", "result": 30}, {"measurement": "Plant response rating, Ragweed", "setting": "[12]; 125 g ai/ha", "result": 60}, {"measurement": "Plant response rating, Ragweed", "setting": "[12]; 250 g ai/ha", "result": 70}, {"measurement": "Plant response rating (scale of 0 to 100), Foxtail, Giant", "setting": "[13]; [16]", "result": 95}, {"measurement": "Plant response rating, Foxtail, Giant", "setting": "[13]; 62 g ai/ha", "result": 95}, {"measurement": "Plant response rating, Foxtail, Giant", "setting": "[13]; 125 g ai/ha", "result": 95}, {"measurement": "Plant response rating, Foxtail, Giant", "setting": "[13]; 250 g ai/ha", "result": 98}, {"measurement": "Plant response rating (scale of 0 to 100), Waterhemp", "setting": "[14]; [16]", "result": 65}, {"measurement": "Plant response rating, Waterhemp", "setting": "[14]; 62 g ai/ha", "result": 60}, {"measurement": "Plant response rating, Waterhemp", "setting": "[14]; 125 g ai/ha", "result": 75}, {"measurement": "Plant response rating, Waterhemp", "setting": "[14]; 250 g ai/ha", "result": 85}, {"measurement": "Plant response rating (scale of 0 to 100), Oilseed Rape", "setting": "[15]; [16]", "result": 15}, {"measurement": "Plant response rating, Oilseed Rape", "setting": "[15]; 62 g ai/ha", "result": 80}, {"measurement": "Plant response rating, Oilseed Rape", "setting": "[15]; 125 g ai/ha", "result": 85}, {"measurement": "Plant response rating, Oilseed Rape", "setting": "[15]; 250 g ai/ha", "result": 90}]}
